# Experimental data reported in publication PMC11931445, “A Novel Compound QO‐83 Alleviates Acute and Chronic Epileptic Seizures in Rodents by Modulating KV7 Channel Activity” (CNS Neuroscience & Therapeutics, 2025).
# Columns and labels:
# KV7.2/7.3 = biological target: T1, KV7.2/7.3 (Homo sapiens, UniProt O43525+O43526); assay: Rb+ efflux high-throughput screening (ICR 8000); assay type: cell-based
# T1 construct: expressed in transfected cells
# Source text: (§1) The activation effect of QO-83 on the KV7 channel was preliminarily verified using high-throughput screening methodologies.
# (§2) [picture] Figure S3: The activation effect of QO-83 on the KV7 channels was preliminarily verified by high-throughput screening. (A)High-throughput screening for KV7.2/7.3 stable expressed in CHO cells (n = 6). (B)High-throughput screening for KV7.4 stable expressed in HEK293 cells (n = 6). (C) High-throughput screening for KCNQ1/E1 transient expression in HEK293 cells (n = 6).
# (§3) The high-throughput screening experiment utilizing the ICR 8000 rubidium ion elution method aimed to assess the sensitivity of QO-83 towards KV7.2/3 and KV7.1 channels. Cells in the logarithmic growth phase were seeded into 96-well plates at a density of 2×10^5 cells per well. Following overnight incubation, the medium was replaced with 200 μL of RBCL-loaded buffer and incubated under controlled conditions (5% CO2, 37°C) for 3 hours. The loading buffer composition consisted of 5.4 mM RbCl, 5 mM Glucose, 25 mM HEPES, 150 mM NaCl, 1 mM MgCl2, 0.8 mM NaH2PO4•2H2O, and 2 mM CaCl2.
# (§4) Subsequently, the solution was aspirated, and the cells were washed thrice with Washing Buffer (5.4 mM KCl, 25 mM HEPES, 150 mM NaCl, 1 mM MgCl2, 0.8 mM NaH2PO4•2H2O, 2 mM CaCl2). […] Each concentration was distributed across triplicate wells, with corresponding concentration solvent control wells included. […]
# KV7.4 [1] = biological target: T2, KV7.4 (Homo sapiens, UniProt P56696); assay: Rb+ efflux high-throughput screening (ICR 8000); assay type: cell-based
# T2 construct: expressed in transfected cells
# Source text: as §1, §2, §3, §4
# KV7.4 [2] = biological target: T2, KV7.4; assay: Manual patch clamp, KV7 currents; assay type: cell-based
# Procedure: (§5) Pipettes (1–6 MΩ) were filled with a solution of KCl (145 mM), MgCl2 (1 mM), HEPES (10 mM), and EDTA (5 mM). The pH was adjusted to 7.2 with NaOH. Electrophysiological measurements were obtained using an AXON Multiclamp 700 B patch‐clamp amplifier. The bath solution contained NaCl (144 mM), KCl (5 mM), MgCl2 (1 mM), CaCl2 (2 mM), and D‐glucose (10 mM), with the pH adjusted to 7.4 using NaOH. The protocol involved an increase in voltage from −120 mV to 40 mV in increments of 10 mV to evoke a series of KV7 currents (1000 ms per pulse) in the bath solution. For details on cell culture, please see Appendix S1 2.2.1.
# (§6) Statistical differences between multiple groups (mean ± SEM) were compared using one‐ or two‐way ANOVA. Electrophysiological data were analyzed using SPSS version 21 and OriginPro (version 9.1.0). P Peak inward currents obtained from activation protocols were calculated using the following equation: G = I/(Vm‐EK), where G is conductance, I is peak inward current, Vm is instantaneous membrane potential, and EK is equilibrium potential for the […] channel. Conductance data were normalized using maximum conductance and further fitted to the Boltzmann equation: G=Gmax+Gmin−Gmax/1+expVm−V1/2/k , where G is conductance, V1/2 is midpoint of activation, and k is slope factor. The “Spectrum” module of LabChart was used for data analysis of EEG signals, including the calculation of power density and averaging power spectral density (PSD).
# (§7) Stable Chinese Hamster Ovary (CHO) cell lines expressing specific Kv7 channel subtypes, including KV7.2 and KV7.2/7.3, were cultured in Minimum Essential Medium (MEM) supplemented with 10% fetal calf serum, 1× nonessential amino acids, […], and […] hygromycin B. Concurrently, KV7.4 and KV7.5 channels were stably expressed in Human Embryonic Kidney 293A (HEK293A) cell lines and nurtured in Dulbecco's Modified Eagle Medium (DMEM) high glucose medium supplemented with 10% fetal bovine serum (FBS), […], and […] hygromycin B.
# KV7.5 = biological target: T3, KV7.5 (Homo sapiens, UniProt Q9NR82); assay: Manual patch clamp, KV7 currents; assay type: cell-based
# T3 construct: expressed in transfected cells
# Procedure: as §5, §6, §7
# [3] = test system: pilocarpine-induced seizures; assay: Pilocarpine-induced status epilepticus model with EEG; assay type: in vivo, Sprague–Dawley (SD) rats; conditions: for effect on EEG power spectral density: pilocarpine-treated rats
# Source text: For animal experiments, we used adult male Sprague–Dawley (SD) rats weighing between 240 and 260 g. Isoflurane anesthesia was used for all operations. Rats were secured in a stereotaxic frame, and the anterior fontanelle was marked 3 mm posteriorly. Additionally, marks were made approximately 3 mm lateral to the midline on both sides to indicate the insertion points for the positive and negative electrodes. A ground electrode was placed subcutaneously in the occipital lobe to eliminate recording noise. Postoperatively, each animal was housed separately in a single cage and provided food and water ad libitum. After a 3‐day adaptation period, electroencephalograms (EEG) were recorded.
# The experimental procedure commenced with an intraperitoneal injection of lithium chloride (127 mg/kg). After 24 h, subcutaneous scopolamine methyl nitrate (1 mg/kg) was administered. […] Twenty minutes later, status epilepticus (SE) was induced by administering pilocarpine (100 mg/kg, i.p.). SE was terminated 2 h later by administering 10% chloral hydrate.
# The Pilo group, 2 mg/kg XE991 group, and 2 mg/kg XE991 + 1 mg/kg QO‐83 group received an intraperitoneal injection of lithium chloride (127 mg/kg) 24 h prior to testing. Following this, scopolamine methyl nitrate (1 mg/kg) was administered […], and after 10 min, each group was treated with 25% beta‐cyclodextrin, 2 mg/kg XE991, or 2 mg/kg XE991, respectively. After 15 min, 25% beta‐cyclodextrin, 25% beta‐cyclodextrin, or 1 mg/kg QO‐83 was administered. Finally, 25 min later, pilocarpine (100 mg/kg, i.p.) was administered to induce seizures.
# Seizure severity was assessed using a standardized scale ranging from 1 to 5, adapted from previous research criteria. Stage 1 encompasses mouth and facial movements, including wet dog shakes. Stage 2 involves head nodding. Stage 3 is characterized by unilateral forelimb clonus. […] Finally, stage 5 manifests as clonus of all limbs accompanied by falling.
# PTZ kindling seizures = assay: Chronic PTZ-induced epileptic kindling model; assay type: in vivo, Wistar Institute rats
# Procedure: In the preparation of the chronic PTZ‐induced epileptic kindling model, male Wistar Institute rats weighing between 180 and 250 g were utilized. […] During the modeling period, all groups received daily intraperitoneal injections of 0.2 mL/100 g between 9:00 and 15:00.
# Seizure severity was assessed using the Racine scale.
structure (smiles),measurement,setting,value
"CCOC(=O)Nc1ccc(NCc2ccc(F)cc2)cc1N [RTG, retigabine]",EC50,KV7.2/7.3,180 ± 70 nM
same,EC50,KV7.4 [1],1380 ± 310 nM
same,activation curve V1/2,KV7.4 [2]; 10.00 μM,-40.62 ± 2.00 mV
same,Activation τ (10 mV),"KV7.4 [2]; 10 μM, Mean ± SE",242.74 ± 34.66 ms
same,Deactivation τ (-120 mV),"KV7.4 [2]; 10 μM, Mean ± SE",99.62 ± 18.87 ms
same,activation curve V1/2,KV7.5; 10.00 μM,-56.77 ± 1.07 mV
same,Activation τ (10 mV),"KV7.5; 10 μM, Mean ± SE",170.33 ± 16.42 ms
same,Deactivation τ (-120 mV),"KV7.5; 10 μM, Mean ± SE",96.4 ± 14.98 ms
same,effect on epileptic behavior,[3]; 1 mg/kg i.p.,could not rescue the epileptic behavior
same,effect on EEG power spectral density,[3]; 1 mg/kg i.p.,did not exhibit effects equivalent
same,effect on latency of seizures,[3]; 10 mg/kg i.p.,significantly prolonged the latency of seizures
same,effect on seizure grade,[3]; 10 mg/kg i.p.,reduced the seizure grade
same,effect on EEG power spectral density,[3]; 10 mg/kg i.p.,significantly inhibited the increase in EEG power spectral density
same,effect on latency period,PTZ kindling seizures; 10 mg/kg,significantly prolong the latency period
same,seizure grade,"PTZ kindling seizures; 10 mg/kg i.p. daily, 30th day, model 4.68 ± 0.62",1.75 ± 0.31
